The text below walks through data of patent US10047112B2, “Fluorescent labeled inhibitors” (priority 2014, dated 2018).

The subject of data set [1] is M. tb H37Rv-GFP. The data set is described as follows: microbe, parasite or virus in culture. The conditions noted are these: Mycobacterium tuberculosis, 120 h, read-out: Extracellular growth IC50. In kind it is cell-based.
A further data set can be described thus: in vitro. The conditions noted are these: mouse.
Data set [2] concerns M. tb H37Rv-GFP. The data set can be described thus: microbe, parasite or virus in culture. In kind it is cell-based. Conditions: Mycobacterium tuberculosis, RAW264.7, 120 h, read-out: Intracellular macrophage growth IC50.

Like-named read-outs stand apart in the source and are kept apart here. Some results are limits rather than exact numbers.

For `CCc1cc(C(N)=S)ccn1` [Ethionamide], the IC50 in the data set on M. tb H37Rv-GFP [1] and in the data set with M. tb H37Rv-GFP [2] was 6 µM in each case. For the same molecule, in the data set “in vitro”, the CC50 was determined as 120 µM.
For the molecule `NNC(=O)c1ccncc1` [Isoniazid], the IC50 in the data set on M. tb H37Rv-GFP [1] and in the data set with M. tb H37Rv-GFP [2] was 1.2 µM throughout. In addition, the CC50 in “in vitro” is greater than 150 µM.
As to `CO[C@H]1/C=C/O[C@@]2(C)Oc3c(C)c(O)c4c(O)c(c(/C=N/N5CCN(C)CC5)c(O)c4c3C2=O)NC(=O)/C(C)=C\C=C\[C@H](C)[C@H](O)[C@@H](C)[C@@H](O)[C@@H](C)[C@H](OC(C)=O)[C@@H]1C` [Rifampin], the IC50 (in general, the point on the concentration scale where inhibition reaches its midpoint) in the data set with M. tb H37Rv-GFP [1] came out at 0.01 µM; in the data set with M. tb H37Rv-GFP [2], 2.9 µM. The same molecule returned a CC50 in “in vitro” of 24 µM.
